Measured values published in US20020019527A1 (priority 2000, published 2002).
Counter-ions that a name gives are not always drawn.

Each compound was assayed against T1, Farnesyltransferase (FTase) (Bos taurus, UniProt P29702+P49355) (assay: Farnesyltransferase inhibition (scintillation proximity assay, [3H]-FPP / biotin-K-ras peptide)). Details: not given.
T1 construct: precipitation from a beef brain homogenate; from tissue; host or cells: bovine brain
T1 sequence (P49355 whole entry, one chain of several): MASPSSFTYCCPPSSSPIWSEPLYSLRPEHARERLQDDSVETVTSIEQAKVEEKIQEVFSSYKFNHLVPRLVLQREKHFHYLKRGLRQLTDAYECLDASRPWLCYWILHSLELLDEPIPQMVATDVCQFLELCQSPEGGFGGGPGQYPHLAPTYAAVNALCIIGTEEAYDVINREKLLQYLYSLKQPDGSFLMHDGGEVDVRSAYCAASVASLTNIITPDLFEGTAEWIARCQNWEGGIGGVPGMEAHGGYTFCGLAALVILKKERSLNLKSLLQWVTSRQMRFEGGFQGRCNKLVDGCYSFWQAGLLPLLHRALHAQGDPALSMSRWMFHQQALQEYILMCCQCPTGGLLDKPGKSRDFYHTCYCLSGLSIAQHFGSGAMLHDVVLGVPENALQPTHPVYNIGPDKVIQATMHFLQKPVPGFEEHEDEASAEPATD
Format: biochemical, bovine
Procedure, shortened: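 Bovine brain FTase, partially purified by 30–50% saturated ammonium sulfate precipitation and DEAE Sepharose chromatography, separated from GGTase I/II. Scintillation proximity read-out of [3H]-FPP transfer to biotin-K-ras peptide, counted 1 h after quench. Compounds added from ethanol with 10-fold dilution into assay.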
`Cc1ccccc1-c1cc(C(OCc2cc([N+](=O)[O-])cc3c2OCOC3)c2cncn2C)ccc1C#N.Cl` (stereo not drawn) [Example 168] was tested, and the “% Inhibition at 10^−6M” value was 96%.
In the case of `Cc1ccccc1-c1cc(C(OCc2noc(-c3cccc(C(F)(F)F)c3)n2)c2cncn2C)ccc1C#N.Cl` (stereo not drawn) [Example 169, 2′-methyl-5-((1,1-methyl-1H-imidazol-5-yl)((5-(3-(trifluoromethyl)phenyl)-1,2,4-oxadiazol-3-yl)methoxy)methyl)(1,1′-biphenyl)-2-carbonitrile hydrochloride], the “% Inhibition at 10^−6M” value is reported as 70%.
With `Cc1ccccc1-c1cc(C(OCc2c(C)ccc3ccccc23)c2cncn2C)ccc1C#N.Cl` (stereo not drawn) [Example 178] the “% Inhibition at 10^−6M” value was 90%.
`Cc1ccccc1-c1cc(C(OCc2c(C)c(C)cc(C)c2C)c2cncn2C)ccc1C#N.Cl` (stereo not drawn) [Example 179] was tested, and the “% Inhibition at 10^−6M” value was 93%.
With `Cc1ccccc1-c1cc(C(OCc2ccc(OC(F)(F)F)cc2)c2cncn2C)ccc1C#N.Cl` (stereo not drawn) [Example 180] the “% Inhibition at 10^−6M” value was 95%.

Same assay, conditions: compound at 10^−6 M; bovine FTase, 37° C., 30 minutes
`Cc1ccccc1-c1cc(C(OCc2noc(C(C)(C)C)n2)c2cncn2C)ccc1C#N` (stereo not drawn) [Example 159, 5-(((5-(tert-butyl)-1,2,4-oxadiazol-3-yl)methoxy)(1-methyl-1H-imidazol-5-yl)methyl)-2′-methyl(1,1′-biphenyl)-2-carbonitrile hydrochloride] was tested, and the inhibition at 1 µM was 91%.
`Cc1ccccc1-c1cc(C(OCc2ccc(I)cc2)c2cncn2C)ccc1C#N` (stereo not drawn) [Example 160, 5-(((4-iodobenzyl)oxy)(1-methyl-1H-imidazol-5-yl)methyl)-2′-methyl(1,1′-biphenyl)-2-carbonitrile hydrochloride] was tested, and the inhibition at 1 µM was 96%.
Work on `Cc1ccccc1-c1cc(C(OCc2ccc(-c3ccccc3)cc2)c2cncn2C)ccc1C#N` (stereo not drawn) [Example 161, 5-(((1,1′-biphenyl)-4-ylmethoxy)(1-methyl-1H-imidazol-5-yl)methyl)-2′-methyl(1,1′-biphenyl)-2-carbonitrile hydrochloride] yielded an inhibition at 1 µM of 96%.
`Cc1ccccc1-c1cc(C(OCc2csc(-c3ccc(Cl)cc3)n2)c2cncn2C)ccc1C#N` (stereo not drawn) [Example 162, 5-(((2-(4-chlorophenyl)-1,3-thiazol-4-yl)methoxy)(1-methyl-1H-imidazol-5-yl)methyl)-2′-methyl(1,1′-biphenyl)-2-carbonitrile hydrochloride] showed an inhibition at 1 µM of 94%.
In the case of `COc1ccccc1-c1nc(COC(c2ccc(C#N)c(-c3ccccc3C)c2)c2cncn2C)no1` (stereo not drawn) [Example 163, 5-(((5-(2-methoxyphenyl)-1,2,4-oxadiazol-3-yl)methoxy)(1-methyl-1H-imidazol-5-yl)methyl)-2′-methyl(1,1-biphenyl)-2-carbonitrile hydrochloride], the inhibition at 1 µM is reported as 84%.
Work on `Cc1ccccc1-c1cc(C(OCc2ccc(Cl)cc2[N+](=O)[O-])c2cncn2C)ccc1C#N` (stereo not drawn) [Example 164, 5-(((4-chloro-2-nitrobenzyl)oxy)(1-methyl-1H-imidazol-5-yl)methyl)-2′-methyl(1,1′-biphenyl)-2-carbonitrile hydrochloride] yielded an inhibition at 1 µM of 99%.
In the case of `COc1ccc(C(C)=O)cc1COC(c1ccc(C#N)c(-c2ccccc2C)c1)c1cncn1C` (stereo not drawn) [Example 170, 5-(((5-acetyl-2-methoxybenzyl)oxy)(1-methyl-1H-imidazol-5-yl)methyl)-2′-methyl(1,1′-biphenyl)-2-carbonitrile hydrochloride], the inhibition at 1 µM is reported as 85%.
For `Cc1ccccc1-c1cc(C(OCc2noc(-c3ccccc3)n2)c2cncn2C)ccc1C#N` (stereo not drawn) [Example 171, 2′-methyl-5-((1-methyl-1H-imidazol-5-yl)((5-phenyl-1,2,4-oxadiazol-3-yl)methoxy)methyl)(1,1′-biphenyl)-2-carbonitrile hydrochloride], the inhibition at 1 µM was 75%.
`COc1ccc(-c2nc(COC(c3ccc(C#N)c(-c4ccccc4C)c3)c3cncn3C)no2)cc1` (stereo not drawn) [Example 172, 5-(((5-(4-methoxyphenyl)-1,2,4-oxadiazol-3-yl)methoxy)(1-methyl-1H-imidazol-5-yl)methyl)-2′-methyl(1,1′-biphenyl)-2-carbonitrile hydrochloride] gave an inhibition at 1 µM of 85%.
`COc1cccc(-c2nc(COC(c3ccc(C#N)c(-c4ccccc4C)c3)c3cncn3C)no2)c1` (stereo not drawn) [Example 173, 5-(((5-(3-methoxyphenyl)-1,2,4-oxadiazol-3-yl)methoxy)(1-methyl-1H-imidazol-5-yl)methyl)-2′-methyl(1,1′-biphenyl)-2-carbonitrile hydrochloride] was tested, and the inhibition at 1 µM was 80%.
Compound `Cc1ccccc1-c1cc(C(OCc2csc(-c3ccc(C(F)(F)F)cc3)n2)c2cncn2C)ccc1C#N` (stereo not drawn) [Example 175, 2′-methyl-5-((1-methyl-1H-imidazol-5-yl)((2-(4-(trifluoromethyl)phenyl)-1,3-thiazol-4-yl)methoxy)methyl)(1,1′-biphenyl)-2-carbonitrile hydrochloride] has an inhibition at 1 µM of 75%.
With `Cc1cc(COC(c2ccc(C#N)c(-c3ccccc3C)c2)c2cncn2C)no1` (stereo not drawn) [Example 177, 2′-methyl-5-((1-methyl-1H-imidazol-5-yl)((5-methyl-3-isoxazolyl)methoxy)methyl)(1,1′-biphenyl)-2-carbonitrile hydrochloride] the inhibition at 1 µM was 77%.
With `Cc1ccccc1-c1cc(C(OCc2cnc(Cl)c(Cl)c2)c2cncn2C)ccc1C#N` (stereo not drawn) [Example 181, 5-(((5,6-dichloro-3-pyridinyl)methoxy)(1-methyl-1H-imidazol-5-yl)methyl)-2′-methyl(1,1′-biphenyl)-2-carbonitrile hydrochloride] the inhibition at 1 µM was 93%.
`Cc1ccccc1-c1cc(C(OCc2ncc(C(F)(F)F)cc2Cl)c2cncn2C)ccc1C#N` (stereo not drawn) [Example 182, 5-(((3-chloro-5-(trifluoromethyl)-2-pyridinyl)methoxy)(1-methyl-1H-imidazol-5-yl)methyl)-2′-methyl(1,1′-biphenyl)-2-carbonitrile hydrochloride] showed an inhibition at 1 µM of 89%.
Compound `Cc1ccccc1-c1cc(C(OCc2ccc3ccccc3c2)c2cncn2C)ccc1C#N` (stereo not drawn) [Example 183, 2′-methyl-5-((1-methyl-1H-imidazol-5-yl)(2-naphthylmethoxy)methyl)(1,1′-biphenyl)-2-carbonitrile hydrochloride] has an inhibition at 1 µM of 90%.
`Cc1ccccc1-c1cc(C(OCc2cccc(Br)c2)c2cncn2C)ccc1C#N` (stereo not drawn) [Example 184, 5-(((3-bromobenzyl)oxy)(1-methyl-1H-imidazol-5-yl)methyl)-2′-methyl(1,1′-biphenyl)-2-carbonitrile hydrochloride] gave an inhibition at 1 µM of 95%.
In the case of `Cc1ccccc1-c1cc(C(OCc2ccccc2Br)c2cncn2C)ccc1C#N` (stereo not drawn) [Example 185, 5-(((2-bromobenzyl)oxy)(1-methyl-1H-imidazol-5-yl)methyl)-2′-methyl(1,1′-biphenyl)-2-carbonitrile hydrochloride], the inhibition at 1 µM is reported as 85%.
In the case of `Cc1ccccc1-c1cc(C(OCc2c(F)cccc2F)c2cncn2C)ccc1C#N` (stereo not drawn) [Example 186, 5-(((2,6-difluorobenzyl)oxy)(1-methyl-1H-imidazol-5-yl)methyl)-2′-methyl(1,1′-biphenyl)-2-carbonitrile hydrochloride], the inhibition at 1 µM is reported as 85%.
In the case of `Cc1ccccc1-c1cc(C(OCc2ccc(C(F)(F)F)cc2F)c2cncn2C)ccc1C#N` (stereo not drawn) [Example 187, 5-(((2-fluoro-4-(trifluoromethyl)benzyl)oxy)(1-methyl-1H-imidazol-5-yl)methyl)-2′-methyl(1,1′-biphenyl)-2-carbonitrile hydrochloride], the inhibition at 1 µM is reported as 93%.
For `Cc1ccccc1-c1cc(C(OCc2ccc(C(N)=O)cc2)c2cncn2C)ccc1C#N` (stereo not drawn) [Example 188, 4-(((6-cyano-2′-methyl(1,1′-biphenyl)-3-yl)(1-methyl-1H-imidazol-5-yl)methoxy)methyl)benzamide], the inhibition at 1 µM was 92%.
In the case of `CNC(=O)c1ccc(COC(c2ccc(C#N)c(-c3ccccc3C)c2)c2cncn2C)cc1` (stereo not drawn) [Example 189, 4-(((6-cyano-2′-methyl(1,1′-biphenyl)-3-yl)(1-methyl-1H-imidazol-5-yl)methoxy)methyl)-N-methylbenzamide], the inhibition at 1 µM is reported as 95%.
Work on `Cc1ccccc1-c1cc(C(OCc2ccc(C(=O)N(C)C)cc2)c2cncn2C)ccc1C#N` (stereo not drawn) [Example 190, 4-(((6-cyano-2′-methyl(1,1′-biphenyl)-3-yl)(1-methyl-1H-imidazol-5-yl)methoxy)methyl)-N,N-dimethylbenzamide] yielded an inhibition at 1 µM of 90%.
`Cn1cncc1CN(Cc1ccc(C#N)cc1)C(=O)c1ccc(C#N)c(-c2cccc3ccccc23)c1` [Example 191, 4-cyano-N-(4-cyanobenzyl)-N-((1-methy-1H-imidazol-5-yl)methyl)-3-(1-naphthyl)benzamide] was tested, and the “% Inhibition at 10^−6M” value was 99%.
For `Cn1cncc1CN(Cc1ccc(C(=O)O)cc1)Cc1ccc(C#N)c(-c2cccc3ccccc23)c1` [Example 193, 4-(((4-cyano-3-(1-naphthyl)benzyl)((1-methyl-1H-imidazol-5-yl)methyl)amino)methyl)benzoic acid dihydrochloride], the inhibition at 1 µM was 91%.
Work on `CC(=O)Nc1ccc(CN(Cc2ccc(C#N)c(-c3cccc4ccccc34)c2)Cc2cncn2C)cc1` [Example 194, N-(4-(((4-cyano-3-(1-naphthyl)benzyl)((1-methyl-1H-imidazol-5-yl)methyl)amino)methyl)phenyl)acetamide dihydrochloride] yielded an inhibition at 1 µM of 97%.
In the case of `Cn1cncc1CN(Cc1ccc(S(C)(=O)=O)cc1)Cc1ccc(C#N)c(-c2cccc3ccccc23)c1` [Example 195, 4-((((1-methyl-1H-imidazol-5-yl)methyl)(4-(methylsulfonyl)benzyl)amino)methyl)-2-(1-naphthyl)benzonitrile dihydrochloride], the inhibition at 1 µM is reported as 98%.
`Cn1cncc1CN(Cc1ccc(C#N)c(-c2cccc3ccccc23)c1)C(=O)c1ccc(C#N)cc1` [Example 196, 4-cyano-N-(4-cyano-3-(1-naphthyl)benzyl)-N-((1-methyl-1H-imidazol-5-yl)methyl)benzamide] showed an inhibition at 1 µM of 90%.
Work on `Cn1cncc1CN(Cc1ccc(C#N)c(-c2cccc3ccccc23)c1)C(=O)c1ccc(Cl)c(Cl)c1` [Example 197, 3,4-dichloro-N-(4-cyano-3-(1-naphthyl)benzyl)-N-((1-methyl-1H-imidazol-5-yl)methyl)benzamide] yielded an inhibition at 1 µM of 93%.
